Results on one compound are retold here after article PMC7016953 (Cells, 2020).

Like-named read-outs stand apart in the source and are kept apart here.

For assay [1], the system named is T1, hTRPC6-YFP.
T1 construct: expressed in transfected cells
Kind of assay: Fluo-4 Ca2+ influx assay in HEK293 cells stably expressing TRPC6. Particulars: for effect on TRPC6: fluo-4 concentration response analysis. It counts as cell-based, human.

The target in assay [2] is T2, TRPC3 (Homo sapiens, UniProt Q13507).
T2 construct: expressed in transfected cells
T2 sequence (Q13507 1-848 isoform Q13507-3): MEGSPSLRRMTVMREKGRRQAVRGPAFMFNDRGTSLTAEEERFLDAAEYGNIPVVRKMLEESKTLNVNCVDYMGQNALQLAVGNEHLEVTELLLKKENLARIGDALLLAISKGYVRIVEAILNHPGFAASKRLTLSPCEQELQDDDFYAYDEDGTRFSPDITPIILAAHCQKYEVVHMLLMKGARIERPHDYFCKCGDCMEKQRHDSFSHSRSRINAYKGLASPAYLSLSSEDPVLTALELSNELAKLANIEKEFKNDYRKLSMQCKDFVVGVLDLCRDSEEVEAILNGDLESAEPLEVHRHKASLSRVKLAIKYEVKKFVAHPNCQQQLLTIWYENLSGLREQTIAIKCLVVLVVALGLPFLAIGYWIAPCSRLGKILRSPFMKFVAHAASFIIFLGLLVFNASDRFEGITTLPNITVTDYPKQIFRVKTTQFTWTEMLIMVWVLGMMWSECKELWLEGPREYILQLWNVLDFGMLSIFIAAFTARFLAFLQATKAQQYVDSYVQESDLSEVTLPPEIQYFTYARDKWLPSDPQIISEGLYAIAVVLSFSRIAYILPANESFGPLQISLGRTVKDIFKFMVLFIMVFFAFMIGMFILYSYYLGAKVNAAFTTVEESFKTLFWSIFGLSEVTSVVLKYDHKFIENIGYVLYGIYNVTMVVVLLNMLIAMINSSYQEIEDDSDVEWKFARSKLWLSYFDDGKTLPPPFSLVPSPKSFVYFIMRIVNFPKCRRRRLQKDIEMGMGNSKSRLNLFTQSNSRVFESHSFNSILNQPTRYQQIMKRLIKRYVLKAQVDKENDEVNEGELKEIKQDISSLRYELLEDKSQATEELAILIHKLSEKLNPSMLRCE
The experiment in a line: Whole-cell patch-clamp recordings in HEK TRPC3-YFP cells. It counts as cell-based. As to conditions: for EC50: n = 12–27 cells. The procedure:
The recordings of TRPC3, TRPC6, or TRPC7 membrane currents in HEK293 or PC12 cells were realized by using a Multiclamp 700B amplifier with a Digidata 1440A digitizer controlled by the PClamp 10 software (all Molecular Devices, Sunnyvale, CA, U.S.A.). Recordings were obtained at room temperature either in the whole-cell or in an outside-out configuration as indicated. Cells were seeded as described above, but at lower density, mounted in a chamber (Warner Instruments, Hamden, CT; U.S.A.), placed onto the stage of an inverted microscope, and perfused with required solution. The standard extracellular solution contained 140 mM NaCl, 5 mM CsCl, 2 mM MgCl2, 1 mM CaCl2, 10 mM HEPES, and 0.035% BSA adjusted to pH 7.4 with NaOH. The composition of standard intracellular solution was 140 mM CsCl, 1 mM MgCl2, 5 mM EGTA, and 10 mM HEPES adjusted to pH 7.25 with CsOH; the osmolarity was 295 mOsm l^−1. In outside-out measurements, the pipette solution contained 5 mM EGTA and 1.1 mM CaCl2 to achieve a calculated free Ca^2+ concentration of 100 nM.
Patch pipettes were pulled from borosilicate glass capillaries BG150F-8P (Science Products, Hofheim, Germany) with a PIP6 pipette puller (HEKA Elektronik, Lambrecht, Germany). […] In all whole-cell measurements, the series resistance was lower than 13 MΩ, and compensated by 70%. If the access was unstable during the experiment (increase in series resistance by more than 15% at the end of the experiment), the cell was omitted from the analysis. To record current/voltage (I/V) curves, voltage ramps (400 mV s^−1) ranging from –100 to +100 mV were applied. Currents were filtered at 3 kHz with a four-pole Bessel filter and sampled at 10 kHz.
Figure 4 Electrophysiological analysis of artemisinin-induced whole-cell currents in HEKTRPC3-YFP cells. The voltage protocol depicted in the box (duration of 0.8 s) was applied in 1 s intervals, and steady state inward and outward current densities averaged at potentials of –100 or +100 mV as well as voltage ramps (0.4 Vs^−1) were extracted from the data. (A) Current densities at +100 and –100 mV, respectively.
For orientation: In patch-clamp work, channel activity is measured electrically.

Assay [3] deals with T3, TRPM8.
T3 construct: expressed in transfected cells
The experiment in a line: Selectivity profiling, fluo-4 [Ca2+]i response, TRPM8. It counts as cell-based. Particulars: 100 µM. The protocol:
The primary compound screen and the generation of concentration response curves in HEK293 cells or in PC12 cells were performed by using a custom-made fluorescence plate imager built into a robotic liquid handling station equipped with a 96-tip multichannel head (Freedom Evo 150, Tecan, Männedorf, Switzerland) as described previously. To this end, trypsinized cell suspensions were loaded with 4 µM fluo-4/AM (Invitrogen, Thermo Fisher Scientific, Waltham, MA, U.S.A.) in cell culture medium for 30 min at 37 °C. After brief centrifugation, cells were resuspended in HBS and dispensed into black pigmented, clear-bottom 384-well plates (Greiner µClear, Frickenhausen, Germany). Plates were mounted on the imager, and fluorescence signals were recorded with a cooled Zyla 5.5 camera (Andor, Belfast, UK) through a 515 nm long pass filter. The image acquisition was controlled by the µManager software (http://micro-manager.org), and excitation with a LED array (470 nm) was synchronized by the camera trigger output. […] When inhibitory potencies were evaluated, a second pipetting step with the respective reference agonist was performed. Fluorescence intensities were calculated from image stacks for each well with ImageJ (National Institutes of Health, Bethesda, MD, U.S.A.), corrected for background signals, and normalized to the initial intensities (F/F0). […]

Regarding `C[C@@H]1CC[C@H]2[C@@H](C)C(=O)O[C@@H]3O[C@@]4(C)CC[C@@H]1[C@]32OO4` [artemisinin], the “effect on TRPC6” value in assay [1] was “marked preference to activate TRPC3, but not the closely related TRPC6 channel”; in assay [1] (listed as Artemisinin), “rather inhibits TRPC6”. Also, the “signal in counterscreen with TRPC6-expressing cells” value in assay [1] (primary screen, 20 µM) is “no signals”. In assay [2] (+100 mV), the “Hill coefficient, outward currents” value is on record as 2.2. Moreover, the EC50 (as a rule, the midpoint of the concentration-response curve) in assay [2] (+100 mV, read-out: EC50 to activate TRPC3 outward currents) amounted to 33 µM; in assay [2] (−100 mV, read-out: EC50 to activate TRPC3 inward currents), 25 µM. Further, the “Hill coefficient, inward currents” value in assay [2] (−100 mV) worked out at 2.4. Further, in assay [3], the “[Ca2+]i response, TRPM8” value was “none of the cell lines responded”.
